Experimental findings from ChEMBL document CHEMBL5154664, “Imidazolylacetophenone oxime-based multifunctional neuroprotective agents: Discovery and structure-activity relationships” (Eur J Med Chem, 2022) are described below.

Broadly, the EC50 is the concentration that produces a half-maximal response. Low values mean a more potent agent, high ones a less potent agent. As a reminder, the viability is a per cent measure of how many cells are alive, often set against a control. One may read the CC50 as the concentration giving 50% cytotoxicity. Usually inhibition stands for the relative decrease from the control value, in per cent. A higher inhibition goes with strong suppression.

The structures appear in SMILES notation. Where only a bound is given, the exact number is not on record here.

The nature of data set [1]: Inhibition of LPS induced NO production in mouse BV-2 cells by Griess reagent based analysis. Format: functional, cell-based. (In general: Griess reagent forms a coloured azo dye with nitrite.)
Data set [2] can be described thus: Antioxidant activity assessed as DPPH radical scavenging activity at 20 uM incubated for 30 mins under dark condition by microplate reader based assay. Format: functional.
Data set [3] can be described thus: Cytotoxicity against LPS induced mouse BV-2 cells assessed as inhibition in cell viability at 20 uM measured by MTT assay. (In general: Tetrazolium assays rely on reduction of a dye to a coloured formazan, in cell work by metabolically active cells.)
Data set [4] addresses Acetylcholinesterase (Electrophorus electricus) (UniProt O42275). As to the kind of experiment: Inhibition of electric eel AChE at 20 uM using acetylthiocholine iodide as substrate preincubated with enzyme for 20 mins followed by substrate addition and measured after 45 mins by Ellman's method. The following applies: time 65.0 min. A general note: Ellman's reagent forms a yellow product with free thiols.

Data set [5] can be described thus: Permeability of compound by PAMPA-BBB assay. Format: ADME. The following applies: read-out: permeability.

Acetylcholinesterase (Electrophorus electricus), sequence (O42275 24-633 limits assumed): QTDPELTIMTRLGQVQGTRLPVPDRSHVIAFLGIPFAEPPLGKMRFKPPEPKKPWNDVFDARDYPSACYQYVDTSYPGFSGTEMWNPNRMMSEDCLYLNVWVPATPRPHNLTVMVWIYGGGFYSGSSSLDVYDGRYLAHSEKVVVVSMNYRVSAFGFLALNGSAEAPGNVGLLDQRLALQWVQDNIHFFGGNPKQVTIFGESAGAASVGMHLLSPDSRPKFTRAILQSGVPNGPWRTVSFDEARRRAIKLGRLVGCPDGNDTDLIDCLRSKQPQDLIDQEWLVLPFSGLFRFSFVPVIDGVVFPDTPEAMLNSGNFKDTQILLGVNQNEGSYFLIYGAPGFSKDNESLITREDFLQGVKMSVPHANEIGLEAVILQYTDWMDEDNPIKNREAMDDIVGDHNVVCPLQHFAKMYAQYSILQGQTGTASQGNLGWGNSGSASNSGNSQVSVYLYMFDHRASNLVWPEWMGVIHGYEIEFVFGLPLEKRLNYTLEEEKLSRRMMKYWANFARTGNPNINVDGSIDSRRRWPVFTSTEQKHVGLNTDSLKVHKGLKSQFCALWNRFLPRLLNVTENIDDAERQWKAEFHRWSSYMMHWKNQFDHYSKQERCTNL

Take `Cc1ccc(C(=O)O/N=C(\Cn2ccnc2)c2ccc3c(c2)OC(C)(C)O3)c2ccccc12`: a half-maximal effect in data set [1] (EC50) was put at 1.79 µM. Further, the Activity in data set [2] amounted to 34%. The viability at 20 µM in data set [3] (BV-2 cells) amounted to 94.3%.
In turn, `CC1(C)Oc2ccc(/C(Cn3ccnc3)=N/OC(=O)/C=C/c3ccccc3)cc2O1` showed an EC50 in data set [1] of 5.85 µM. In data set [3] (BV-2 cells), the viability at 20 µM was determined as 91.8%.
`CC1(C)Oc2ccc(/C(Cn3ccnc3)=N/OC(=O)/C=C/c3ccc(C(F)(F)F)cc3)cc2O1` returned a concentration giving a half-maximal response (EC50) in data set [1] of 1.03 µM. Moreover, in data set [2], the Activity was found to be 27.7%. Besides, the viability at 20 µM in data set [3] (BV-2 cells) worked out at 92.1%.
Take `Cc1ccc(/C=C/C(=O)O/N=C(\Cn2ccnc2)c2ccc3c(c2)OC(C)(C)O3)cc1`: the EC50 in data set [1] is 6.03 µM. In addition, in data set [3] (BV-2 cells), the viability at 20 µM came out at 93.6%.
Molecule `C#CCO/N=C(\Cn1ccnc1)c1ccc2c(c1)OC(C)(C)O2` yielded an EC50 in data set [1] of 3.25 µM. Besides, the viability at 20 µM in data set [3] (BV-2 cells) was found to be 95.1%.
`C#CCO/N=C(\Cn1ccnc1)c1ccc(Br)cc1` showed an EC50 in data set [1] of 5.6 µM. Further, the CC50 in data set [3] (BV-2 cells) is > 20 µM.
`CC1(C)Oc2ccc(/C(Cn3ccnc3)=N/OC(=O)/C=C/c3cccc(Cl)c3)cc2O1`: the EC50 in data set [1] is 4.83 µM. In addition, in data set [3] (BV-2 cells), the viability at 20 µM was determined as 92.7%.
In data set [1], `Cc1ccc(C(=O)O/N=C(\Cn2ccnc2)c2ccc3c(c2)OC(C)(C)O3)cc1` gave an EC50 of 9.05 µM. Besides, the viability at 20 µM in data set [3] (BV-2 cells) amounted to 98.2%.
For `CC1(C)Oc2ccc(/C(Cn3ccnc3)=N/OC(=O)Cc3ccc4ccccc4c3)cc2O1`, in that order: 1.51 µM and 96.4%.
For `CC1(C)Oc2ccc(/C(Cn3ccnc3)=N/OC(=O)c3ccc(Br)cc3)cc2O1`, in that order: 3.16 µM and 92.6%.
For `CC1(C)Oc2ccc(/C(Cn3ccnc3)=N/OC(=O)/C=C/c3ccccc3F)cc2O1`, in that order: 3.19 µM and 90.8%.
In data set [1], `C#CCO/N=C(\Cn1ccnc1)c1ccc(F)cc1` had an EC50 of 7.8 µM. Moreover, the viability at 20 µM in data set [3] (BV-2 cells) came to 93.8%.
With `CC1(C)Oc2ccc(/C(Cn3ccnc3)=N/OC(=O)/C=C/c3ccc(F)cc3)cc2O1`, the EC50 in data set [1] was 5.96 µM. For the same molecule, in data set [3] (BV-2 cells), the viability at 20 µM was found to be 95.7%.
On the same counts, the results for `C#CCO/N=C(\Cn1ccnc1)c1ccc(C(F)(F)F)cc1` are 8.55 µM and 93.7%.
For `FC(F)(F)c1ccc(CO/N=C(\Cn2ccnc2)c2ccc3c(c2)OCO3)cc1`, in that order: 2.37 µM and 92.8%.
The molecule `CC(C)=CCO/N=C(\Cn1ccnc1)c1ccc2c(c1)OCO2` displayed an EC50 in data set [1] of 1.76 µM. For the same molecule, the Activity in data set [2] came out at 4.25%. Moreover, the viability at 20 µM in data set [3] (BV-2 cells) was found to be 93.3%.
As to `CC1(C)Oc2ccc(/C(Cn3ccnc3)=N/OCc3ccccc3)cc2O1`, the EC50 in data set [1] was 5.69 µM. For the same molecule, in data set [3] (BV-2 cells), the viability at 20 µM stood at 95.7%.
On the same counts, the results for `C#CCO/N=C(\Cn1ccnc1)c1ccc(OC)cc1` are 9.07 µM and 95.9%.
For `C=C(C)CO/N=C(\Cn1ccnc1)c1ccc2c(c1)OCO2`, in that order: 2.12 µM and 96.5%.
For `C#CCO/N=C(\Cn1ccnc1)c1ccc(Cl)cc1`, in that order: 15.5 µM and 92.4%.
`CC1(C)Oc2ccc(/C(Cn3ccnc3)=N/OC(=O)/C=C/c3ccc(Cl)cc3)cc2O1`: in data set [1], the EC50 was found to be 3.71 µM. This molecule also registered an inhibition in data set [4] of 71%. In addition, the viability at 20 µM in data set [3] (BV-2 cells) stood at 91%.
Turning to `CC1(C)Oc2ccc(/C(Cn3ccnc3)=N/OC(=O)c3ccc(Cl)cc3)cc2O1`, in data set [1], the EC50 was 5.52 µM. Further, in data set [3] (BV-2 cells), the viability at 20 µM was found to be 90.5%.
`O=c1c(O)c(-c2ccc(O)c(O)c2)oc2cc(O)cc(O)c12` [QUERCETIN]: the EC50 in data set [1] amounted to 9.56 µM. The viability at 20 µM in data set [3] (BV-2 cells) was determined as 94.3%.
Turning to `CC1(C)Oc2ccc(/C(Cn3ccnc3)=N/OC(=O)c3ccc4cc(Br)ccc4c3)cc2O1`, in data set [1], the EC50 was 1.13 µM. The molecule further returned an inhibition in data set [4] of 69%. Moreover, the viability at 20 µM in data set [3] (BV-2 cells) came to 92.7%.
As for `C#CCO/N=C(\Cn1ccnc1)c1ccc2c(c1)OCO2`, the EC50 in data set [1] stood at 2.07 µM. Also, the viability at 20 µM in data set [3] (BV-2 cells) was 92.5%.
For the molecule `NC(=O)N1c2ccccc2C=Cc2ccccc21` [CARBAMAZEPINE], the Papp in data set [5] was determined as 10.2 ×10⁻⁶ cm/s.
`C#CC(C)O/N=C(\Cn1ccnc1)c1ccc2c(c1)OCO2` (centres undefined) gave an EC50 in data set [1] of 5.41 µM. In addition, in data set [3] (BV-2 cells), the viability at 20 µM was 96.1%.
As to `FC(F)(F)c1ccccc1CO/N=C(\Cn1ccnc1)c1ccc2c(c1)OCO2`, the midpoint of the response in data set [1], the EC50, lay at 1.53 µM. In addition, in data set [2], the Activity came to 8.51%. For the same molecule, in data set [3] (BV-2 cells), the viability at 20 µM amounted to 95.4%.
As to `C#CCO/N=C(\Cn1ccnc1)c1ccc(I)cc1`, the EC50 in data set [1] was 12.7 µM. Also, the viability at 20 µM in data set [3] (BV-2 cells) is 92.1%.
`C(=C\c1ccccc1)/CO/N=C(\Cn1ccnc1)c1ccc2c(c1)OCO2`: the EC50 in data set [1] was > 20 µM. Further, the viability at 20 µM in data set [3] (BV-2 cells) amounted to 96.3%.
For `N#Cc1ccc(CO/N=C(\Cn2ccnc2)c2ccc3c(c2)OCO3)cc1`, in that order: 4.24 µM and 91.6%.
In the case of `Clc1ccc(CO/N=C(\Cn2ccnc2)c2ccc(Cl)cc2Cl)c(Cl)c1` [OXICONAZOLE], in data set [3] (bv-2), the viability at 20 µM worked out at 96.2%.
Regarding `c1ccc(CO/N=C(\Cn2ccnc2)c2ccc3c(c2)OCO3)cc1`, the EC50 in data set [1] came out at 4.43 µM. Moreover, in data set [3] (BV-2 cells), the viability at 20 µM was 97.8%.
For `Cc1cccc(C(=O)O/N=C(\Cn2ccnc2)c2ccc3c(c2)OC(C)(C)O3)c1`, the response in data set [1] was half-maximal at 1.71 µM (EC50). Also, the Activity in data set [2] was found to be 29.8%. The viability at 20 µM in data set [3] (BV-2 cells) amounted to 96.1%.
For `CC1(C)Oc2ccc(/C(Cn3ccnc3)=N/OC(=O)c3cccc4ccccc34)cc2O1`, in that order: 1.62 µM, 36.2% and 91.1%.
`CC1(C)Oc2ccc(/C(Cn3ccnc3)=N/OC(=O)c3ccc4ccccc4c3Br)cc2O1` showed a half-maximal effective concentration (EC50) in data set [1] of 6.5 µM. For the same molecule, the inhibition in data set [4] amounted to 72%. Moreover, in data set [3] (BV-2 cells), the viability at 20 µM was determined as 90.8%.
`CC1(C)Oc2ccc(/C(Cn3ccnc3)=N/OC(=O)/C=C/c3ccc(Br)cc3)cc2O1` came in with an EC50 in data set [1] of 6.89 µM. For the same molecule, in data set [3] (BV-2 cells), the viability at 20 µM was 96.3%.
In data set [1], `CC1(C)Oc2ccc(/C(Cn3ccnc3)=N/OC(=O)c3ccccc3Br)cc2O1` yielded an EC50 of 3.89 µM. Further, in data set [3] (BV-2 cells), the viability at 20 µM came out at 95.4%.
Molecule `C=CCO/N=C(\Cn1ccnc1)c1ccc2c(c1)OC(C)(C)O2` registered an EC50 in data set [1] of 2.22 µM. Further, the viability at 20 µM in data set [3] (BV-2 cells) was determined as 96.4%.
For `CC1(C)Oc2ccc(/C(Cn3ccnc3)=N/OC(=O)c3ccc(F)cc3)cc2O1`, in that order: 6.32 µM and 99.7%.
On the same counts, the results for `C=CCO/N=C(\Cn1ccnc1)c1ccc2c(c1)OCO2` are 3.42 µM and 97.8%.
